Reference: patent publication US20240200074A1, “METHOD AND COMPOSITIONS FOR PREVENTING TUMOR DEVELOPMENT AND METASTASIS” (The Administrators of the Tulane Educational Fund, priority 2021, published 2024)
“Also recorded” adds a separate entry of the source.

What was measured:
4IC = experiment: Cell cycle profile of 4IC cells in vitro, Paclitaxel and TRAF3IP2 knockdown; format: cell-based, human
Excerpt: One chemotherapy agent being tested is Paclitaxel. […] Paclitaxel has been previously shown to arrest cell cycle progression at the G2/M phase, resulting in apoptosis.

wild type 4IC cells = experiment: 4IC tumors in vivo, combination therapy with Paclitaxel and TRAF3IP2-AO; details: vs SCR-AO group
Method: At first, tumors were induced using wild type 4IC cells using a similar set up described in FIG. 5. After tumor induction, each group was treated with one of the following: SCR-AO (4IC SCR-AO Treated), SCR-AO and Paclitaxel (SCR-AO+Paclitaxel Treated), TRAF3IP2-AO Treated, or TRAF3IP2-AO and Paclitaxel (TRAF3IP2-AO+Paclitaxel Treated).

4IC tumors = experiment: Treatment of late stage metastatic TNBC, bioluminescence imaging; format: in vivo, mice; details: 100 μg in 50 μl interperitoneally every 48 hours from day 42
Method: To see if targeting and silencing TRAF3IP2 eliminates metastatic tumors in advanced metastatic TNBC, PDX model were used. 4IC tumors were induced intramammary into mice using 4IC cells [carrying a luciferase-expressing gene for ‘bioluminescence imaging’. Treatment was initiated in late stage BC indicated by advanced metastasis detectable by luciferase imaging (day 42). Animals were treated with TRAF3IP2-AO (100 μg in 50 μl) administered interperitoneally every 48 hours. Control group received SCR-AO in the same fashion (Data not shown). Representative images showing the extend of metastasis after treatment 1(T1), T5, T10, and T15. The control animals were treated with SCR-AO only on T1 and were euthanized due to the increasing tumor growth.

TNBC [1] = experiment: Detection of micrometastasis using PCR in TNBC metastatic niches of AO treated animals; format: in vivo, mice; details: α-satellite DNA of chromosome 17
Method: FIG. 4E. Detection of micrometastasis using PCR. Key TNBC metastatic niches were analyzed for micrometastasis using primers directed towards a human-specific alpha-satellite DNA sequence of the centromere region of human chromosome 17.
Moreover, PCR using primers that specifically detect human-specific a-satellite DNA sequence of the centromere region of human chromosome 17 indicated no micrometastasis in the treated group.

TNBC [2] = experiment: TNBC treated in vivo with antisense oligonucleotide, immunohistochemical analysis of angiogenesis
Excerpt: Also, it is notable that TRAF3IP2 induces the expression and release of pro-angiogenic mediators into the TME, activating endothelial cells to promote neo-vascularization. TRAF3IP2 silencing.

TRAF3IP2 = experiment: Post-mortem Western blotting and immunohistochemical analysis of residual TNBC tumor of AO treated animals; format: in vivo
Excerpt: Post-mortem analysis of residual tumor confirmed that targeting TRAF3IP2 suppresses inflammation, angiogenesis, cell cycle and apoptosis, and genes involved in exosome release (FIG. 7(A)).

BN2 glioblastoma [3] = experiment: Detection of intracranial dissemination by PCR of human-specific α-satellite DNA in brain biopsies; format: in vivo, NSG mice; details: compared to SCR-AO treated group
Excerpt: To detect intracranial micrometastasis, the animals in experiments detailed in FIG. 14 were biopsied from adjacent sections of brain. The biopsy specimen were subjected to PCR assay using primers that specifically detect human-specific a-satellite DNA sequence of the centromere region of chromosome 17. Areas evaluated include the left parietal lobe, at a distance of 2 mm from the focus of initial tumor inoculation (Area I) and the right SSCx equidistant from the interhemispheric fissure relative to the focus of initial tumor inoculation (Area II) (FIG. 15).

BN2 glioblastoma [4] = experiment: Glioblastoma PDX (BN2) intracranial model, ICV administration of AO, 2PE imaging and histology; format: in vivo, NSG mice
Excerpt: For the experiments reported here, the BN2 glioblastoma specimen was used in xenograft studies, and the results are shown in FIG. 14. Glioblastoma was induced by intracranial injection of tumor cells (into the left SSCx of NSG mice; 3×10^5 cells in PBS+Martigel; n=5 mice/group) isolated from primary glioblastoma tissue. At the time of the injection, a chronic cranial window was installed on the left side of the animal's skull that allowed in vivo 2PE imaging of tumor evolution.
For intracerebroventricular (ICV) administration of AO targeting TRAF3IP2 (TRAF3IP2-AO) or control scrambled AO (SCR-AO), a brain cannula was stereotaonctically implanted into the contralateral (right) ventricle (FIG. 14-A). Treatment of mice started on day 10 post-tumor induction with 5 μl every 48 h; 30 nanomolar AO (FIG. 14-B).
Using in vivo 2PE microscopy, angiograms of microvessels in glioblastoma tumors were captured through a cranial window after i.v. injection of fluorescein isothiocyanatedextran for visualization of blood vessels (green signal). Images correspond to day 24 post-tumor induction, after 8 ICV treatments with either SCR-AO (B, I&II; control group), or TRAF3IP2-AO (B IV&V).
Protein expression in residual tumors confirmed that targeting TRAF3IP2 suppresses inflammation, neoangiogenesis, cell cycle and apoptosis (FIG. 14-D).

TNBC cells = experiment: Membrane potential assay (mitochondrial) in TNBC cells; format: cell-based, human; details: in TRAF3IP2 knockdown cells
KNS = experiment: MTT assay with IGU, pediatric GBM cell line; format: cell-based, human
Method: (§1) In vitro investigations were carried out using transduced TNBC cell line (MDAMB-231) and patient derived TNBC cells (4IC), pediatric GBM cell line (KNS), and adult GBM cell line (U87) by targeting and suppressing/silencing TRAF3IP2 expression using shRNA Lentiviral vector (TRAF3IP2KD) versus shRNA control (SCR). Using MTT assay, we treated malignant cells with low and high concentrations of IGU to test cell proliferation, viability, and apoptosis compared to vehicle (DMSO) treated cells. It is shown in FIG. 16 that the silencing of TRAF3IP2 enhances the effect of IGU on adult glioblastoma cells (U87), pediatric glioblastoma cells (KNS) and on triple negative cancer cell growth (data not shown).

U87 = experiment: MTT assay with IGU, adult GBM cell line; format: cell-based, human
Method: as §1

CC(=O)O[C@H]1C(=O)[C@@]2(C)[C@H]([C@H](OC(=O)c3ccccc3)[C@]3(O)C[C@H](OC(=O)[C@H](O)[C@@H](NC(=O)c4ccccc4)c4ccccc4)C(C)=C1C3(C)C)[C@]1(OC(C)=O)CO[C@@H]1C[C@@H]2O [Paclitaxel, reference compound]
increase of proportion of cells in G2 (4IC): 23%
reduction of tumor volume / tumor size (wild type 4IC cells): 42%

TRAF3IP2-AO: anti-sense oligonucleotide targeting TRAF3IP2, SEQ ID NO: 2 mG*mG*mU*mG*mG*G*C*A*C*A*T*G*C*T*C*mC*mU*mU*mC*mU
luciferase signal (metastasis) (4IC tumors): marked reduction of luciferase signal, reaching undetectable levels after 15 treatments
micrometastasis: human-specific DNA sequence in most common metastatic sites (TNBC [1]): No human specific DNA sequence was detected
tumor growth (TNBC [2]; TNBC in vivo): reduced tumor growth
blood vessel density/angiogenesis (CD31 staining) (TNBC [2]; compared to SCR-AO treated tumors): lower blood vessel density/angiogenesis
TNBC cells (human cells) in residual tumor tissue, staining for human-specific mitochondria (TNBC [2]; in vivo): significantly less number
immunohistochemical levels of TRAF3IP2, IL8 and Caspase 3 in tumor (TRAF3IP2; treated group vs. SCR-AO): decreased levels of TRAF3IP2 and IL8 and increased Caspase 3
levels of TRAF3IP2, IL8, IL1b, and VEGF in tumors (protein expression analysis) (TRAF3IP2; vs. SCR-AO): significantly lower levels
intracranial metastasis at Area I (left parietal lobe) and Area II (right SSCx) (BN2 glioblastoma [3]): markedly reduced metastasis at both sites
tumor growth / tumor size (BN2 glioblastoma [4]; ICV, 5 μl every 48 h, 30 nanomolar AO from day 10, vs. SCR-AO): reduced tumor growth; also recorded: marked reduction in tumor size; also recorded: significantly less growth and smaller volumes
blood vessel density / vascularization (BN2 glioblastoma [4]; compared to SCR-AO treated): lower blood vessel density/angiogenesis; also recorded: less vascularization
glioblastoma cells (human cells) in residual tumor tissue, staining for human-specific mitochondria (BN2 glioblastoma [4]; mouse, in vivo): significantly less number
infiltrating cells in subcortical areas (histology of brain sections) (BN2 glioblastoma [4]; mouse, in vivo): significantly smaller number of infiltrating cells
reduction of tumor volume / tumor size (wild type 4IC cells): 78%

FCCP
mitochondrial membrane potential on addition of FCCP (TNBC cells): does not decrease mitochondrial membrane potential

CS(=O)(=O)Nc1cc2occ(NC=O)c(=O)c2cc1Oc1ccccc1 [IGU, N-[7-(methanesulfonamido)-4-oxo-6-phenoxychromen-3-yl]formamide]
cell viability (KNS; 24 hours, C2, KNS control): about 65%
cell viability (KNS; 24 hours, C2, KNSTRAF3IP2KD): about 55%
cell viability (KNS; 48 hours, C1, KNS control): about 55%
cell viability (KNS; 48 hours, C1, KNSTRAF3IP2KD): about 45%
cell viability (KNS; 72 hours, C2, KNS control): about 40%
cell viability (KNS; 72 hours, C2, cells not named (KNSTRAF3IP2KD implied)): about 25%
cell viability (U87; 48 hours, C2 (224.823 mM IGU), U87TRAF3IP2KD): about 40%
cell viability (U87; 48 hours, C2 (224.823 mM IGU), control group U87): about 50%
cell viability (U87; 72 hours, C2, U87TRAF3IP2KD): about 20%
cell viability (U87; 72 hours, C2, control group U87): about 40%
